Common to all, as to format: functional, A2780 ADR
Assay [1] can be described thus: Reversal of multidrug resistance in human 2780AD cells assessed as [3H]vincristine accumulation at 0.1 ug/mL after 2 hrs relative to control.
A short description of assay [2]: Reversal of multidrug resistance in human 2780AD cells assessed as [3H]vincristine accumulation at 1 ug/mL after 2 hrs relative to control.
Assay [3] is described as follows: Reversal of multidrug resistance in human 2780AD cells assessed as [3H]vincristine accumulation at 10 ug/mL after 2 hrs relative to control.
A short description of assay [4]: Reversal of multidrug resistance in human 2780AD cells assessed as [3H]vincristine accumulation at 0.1 ug/mL after 2 hrs relative to verapamil.
The nature of assay [5]: Reversal of multidrug resistance in human 2780AD cells assessed as [3H]vincristine accumulation at 1 ug/mL after 2 hrs relative to verapamil.
A short description of assay [6]: Reversal of multidrug resistance in human 2780AD cells assessed as [3H]vincristine accumulation at 10 ug/mL after 2 hrs relative to verapamil.

The structures appear in SMILES notation.

Take `C=C1[C@@H](OC(C)=O)CC[C@]2(C)[C@@H]1C[C@@H]1C[C@H](OC(C)=O)C(C)=C([C@@H](OC(C)=O)[C@@H]2OC(C)=O)C1(C)C` [TAXUSIN]: the Activity came out at 106% in assay [1]; 228% in assay [2]; 461% in assay [3]; 102% in assay [4]; 157% in assay [5]; 136% in assay [6].
As for `COc1ccc(CCN(C)CCCC(C#N)(c2ccc(OC)c(OC)c2)C(C)C)cc1OC` (centres undefined) [VERAPAMIL], the Activity was determined as 104% in assay [1], 145% in assay [2] and 352% in assay [3].

The values are drawn from ChEMBL document CHEMBL1158726, “Taxoids and abietanes from callus cultures of Taxus cuspidata” (2005).
